Experimental data from patent US10155775B2, “Substituted amino six-membered saturated heteroalicycles as long-acting DPP-IV inhibitors” (Centaurus Biopharma Co., Ltd., priority 2015, dated 2018).
Read-outs that look alike come from different tables or passages of the source.

How the values were obtained:
CYP2B6 = CYP2B6 (Homo sapiens (Human), UniProt P20813); test: IC50 of inhibiting CYP enzyme system, human liver microsomes; type: in vitro ADME; details: read-out: IC50 in inhibiting CYP Enzyme System 2B6
Sequence of CYP2B6 (P20813 whole entry): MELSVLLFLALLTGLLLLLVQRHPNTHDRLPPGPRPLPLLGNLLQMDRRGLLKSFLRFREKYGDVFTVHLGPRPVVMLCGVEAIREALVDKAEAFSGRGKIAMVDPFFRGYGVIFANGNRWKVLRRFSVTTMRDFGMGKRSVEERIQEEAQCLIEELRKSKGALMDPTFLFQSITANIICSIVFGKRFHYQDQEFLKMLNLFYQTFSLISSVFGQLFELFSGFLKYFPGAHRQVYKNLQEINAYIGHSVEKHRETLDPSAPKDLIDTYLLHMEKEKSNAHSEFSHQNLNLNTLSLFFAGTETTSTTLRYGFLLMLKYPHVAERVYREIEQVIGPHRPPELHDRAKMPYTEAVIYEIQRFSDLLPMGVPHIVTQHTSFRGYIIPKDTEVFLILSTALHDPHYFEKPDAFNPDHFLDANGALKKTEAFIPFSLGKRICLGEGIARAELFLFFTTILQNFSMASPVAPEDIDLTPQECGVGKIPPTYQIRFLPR
Experimental: (§1) IC50 values of compounds of the present application in inhibiting CYP enzyme system were determined by using the following method.
(§2) Human liver microsomes frozen at −80° C. in refrigerator were placed on ice for thawing, of which 100 μL was placed in a constant temperature oscillator for incubation (1 hour) at 60° C. and 100 rpm when immediately thawing, and the rest was frozen immediately in refrigerator at −80° C. After one hour, 100 μL inactivated liver microsomes were taken out, and thereto was added 400 μL phosphate buffer, and uniformly mixed to form a 4 mg/mL solution of inactivated liver microsomes. Meanwhile, human liver microsomes frozen at −80° C. in refrigerator were placed on ice for thawing, of which 100 μL was taken out when immediately thawing, and thereto was added 400 μL phosphate buffer, and uniformly mixed to form a 4 mg/mL solution of liver microsomes. The incubation mixtures for a positive control, test compounds and a negative control were prepared according to Table 3 below:
(§3) The above incubation mixtures were incubated for 5 minutes in a constant temperature oscillator at 37° C. and 100 rpm.
(§4) To 2.5 μL working solution of the test compounds or positive control (the negative control was added to the working solution of the test compounds) were added 91.5 μL the incubation mixtures and 6 μL NADPH solution, and then the reaction was initiated via vortex. The resulting solutions were incubated in a constant temperature oscillator at 37° C. and 100 rpm, and the incubation time was shown in Table 4 below:
(§5) Samples from the terminated reaction were centrifuged at 12000 rpm for 10 minutes, and supernatants were taken out for analysis.
(§6) Analyst 1.4.2 or equivalent software was used for data processing. Integrals were detected to ensure that all peaks were properly integrated, and if necessary, adjust integral parameters.
(§7) The quantification of an analyte was defined as a ratio of a peak area of the analyte to that of the internal standard.

CYP3A4 = CYP3A4 (Homo sapiens (Human), UniProt P08684); test: as above; type: in vitro ADME
Sequence of CYP3A4 (P08684 whole entry): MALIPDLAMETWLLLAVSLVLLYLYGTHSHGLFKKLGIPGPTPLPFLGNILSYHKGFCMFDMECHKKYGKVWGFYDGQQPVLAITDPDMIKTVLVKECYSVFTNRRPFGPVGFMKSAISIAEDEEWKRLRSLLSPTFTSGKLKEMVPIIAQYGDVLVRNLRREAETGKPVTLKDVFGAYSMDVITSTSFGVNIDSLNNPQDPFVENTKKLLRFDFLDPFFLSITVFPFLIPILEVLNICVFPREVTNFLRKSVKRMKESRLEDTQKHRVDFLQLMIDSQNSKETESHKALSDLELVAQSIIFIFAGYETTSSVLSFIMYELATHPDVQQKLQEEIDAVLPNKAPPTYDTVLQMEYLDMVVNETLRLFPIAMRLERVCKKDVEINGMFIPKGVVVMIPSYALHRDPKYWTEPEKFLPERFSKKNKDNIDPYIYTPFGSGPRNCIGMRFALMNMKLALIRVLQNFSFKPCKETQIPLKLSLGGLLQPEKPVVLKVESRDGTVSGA
Experimental: as §1, §2, §3, §4, §5, §6, §7

CYP1A2 = CYP1A2 (Homo sapiens (Human), UniProt P05177); test: as above; type: in vitro ADME; details: read-out: IC50 in inhibiting CYP Enzyme System 1A2
Sequence of CYP1A2 (P05177 whole entry): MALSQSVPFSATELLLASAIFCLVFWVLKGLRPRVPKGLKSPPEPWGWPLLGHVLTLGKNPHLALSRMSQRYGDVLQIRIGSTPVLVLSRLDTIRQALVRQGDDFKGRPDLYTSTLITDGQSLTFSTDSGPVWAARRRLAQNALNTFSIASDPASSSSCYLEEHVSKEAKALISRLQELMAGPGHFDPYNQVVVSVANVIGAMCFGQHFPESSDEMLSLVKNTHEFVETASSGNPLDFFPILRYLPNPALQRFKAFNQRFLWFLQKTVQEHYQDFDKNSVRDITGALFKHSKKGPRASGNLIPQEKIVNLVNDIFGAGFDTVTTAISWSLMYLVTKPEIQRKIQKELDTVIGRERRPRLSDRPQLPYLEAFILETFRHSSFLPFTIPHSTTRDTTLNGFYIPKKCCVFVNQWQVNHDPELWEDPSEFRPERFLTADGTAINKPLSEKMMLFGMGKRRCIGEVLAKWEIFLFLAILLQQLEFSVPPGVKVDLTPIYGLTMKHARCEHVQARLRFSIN
Experimental: as §1, §2, §3, §4, §5, §6, §7

CYP2C8 = CYP2C8 (Homo sapiens (Human), UniProt P10632); test: as above; type: in vitro ADME; details: read-out: IC50 in inhibiting CYP Enzyme System 2C8
Sequence of CYP2C8 (P10632 whole entry): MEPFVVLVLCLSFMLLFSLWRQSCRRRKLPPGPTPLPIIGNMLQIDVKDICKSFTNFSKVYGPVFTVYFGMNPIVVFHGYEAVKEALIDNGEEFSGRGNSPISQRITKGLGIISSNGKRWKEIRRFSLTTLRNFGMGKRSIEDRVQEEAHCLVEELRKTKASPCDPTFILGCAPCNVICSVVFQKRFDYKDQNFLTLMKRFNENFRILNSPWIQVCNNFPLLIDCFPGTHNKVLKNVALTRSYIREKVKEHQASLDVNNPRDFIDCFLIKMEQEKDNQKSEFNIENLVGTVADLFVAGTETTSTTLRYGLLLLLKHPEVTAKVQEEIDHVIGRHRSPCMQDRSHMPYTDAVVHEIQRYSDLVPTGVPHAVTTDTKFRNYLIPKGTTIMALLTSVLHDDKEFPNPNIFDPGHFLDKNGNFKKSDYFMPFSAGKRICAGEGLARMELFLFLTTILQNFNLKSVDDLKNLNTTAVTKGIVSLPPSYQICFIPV
Experimental: as §1, §2, §3, §4, §5, §6, §7

CYP2C9 = CYP2C9 (Homo sapiens (Human), UniProt P11712); test: as above; type: in vitro ADME; details: read-out: IC50 in inhibiting CYP Enzyme System 2C9
Sequence of CYP2C9 (P11712 whole entry): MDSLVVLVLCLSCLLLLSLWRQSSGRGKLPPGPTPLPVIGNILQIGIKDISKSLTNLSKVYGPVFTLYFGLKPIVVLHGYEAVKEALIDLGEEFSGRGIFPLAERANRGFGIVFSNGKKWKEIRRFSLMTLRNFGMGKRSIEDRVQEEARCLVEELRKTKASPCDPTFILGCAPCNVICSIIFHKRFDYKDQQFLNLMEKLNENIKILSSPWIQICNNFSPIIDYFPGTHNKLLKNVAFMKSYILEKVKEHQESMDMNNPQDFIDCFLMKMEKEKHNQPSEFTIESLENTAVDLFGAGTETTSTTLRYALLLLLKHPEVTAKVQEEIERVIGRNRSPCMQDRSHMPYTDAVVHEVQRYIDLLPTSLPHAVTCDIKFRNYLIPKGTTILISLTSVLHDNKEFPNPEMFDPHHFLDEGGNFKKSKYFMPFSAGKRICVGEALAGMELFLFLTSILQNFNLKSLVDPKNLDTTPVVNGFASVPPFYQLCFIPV
Experimental: as §1, §2, §3, §4, §5, §6, §7

CYP2C19 = CYP2C19 (Homo sapiens (Human), UniProt P33261); test: as above; type: in vitro ADME; details: read-out: IC50 in inhibiting CYP Enzyme System 2C19
Sequence of CYP2C19 (P33261 whole entry): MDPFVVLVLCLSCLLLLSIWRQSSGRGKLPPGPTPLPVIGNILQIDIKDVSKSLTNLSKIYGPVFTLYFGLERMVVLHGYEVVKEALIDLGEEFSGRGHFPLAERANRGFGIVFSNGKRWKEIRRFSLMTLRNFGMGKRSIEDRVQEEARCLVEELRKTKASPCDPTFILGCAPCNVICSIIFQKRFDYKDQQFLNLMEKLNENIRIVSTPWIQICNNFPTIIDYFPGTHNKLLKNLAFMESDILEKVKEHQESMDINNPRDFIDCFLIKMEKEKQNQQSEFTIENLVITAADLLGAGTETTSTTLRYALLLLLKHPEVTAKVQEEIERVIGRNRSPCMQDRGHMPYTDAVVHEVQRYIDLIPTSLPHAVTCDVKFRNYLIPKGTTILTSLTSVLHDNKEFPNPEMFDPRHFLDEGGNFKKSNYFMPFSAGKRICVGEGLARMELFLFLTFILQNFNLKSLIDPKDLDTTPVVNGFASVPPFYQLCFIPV
Experimental: as §1, §2, §3, §4, §5, §6, §7

[1] = Measuring pharmacokinetics parameters in rats after intragastric administration; type: in vivo; details: male, plasma; rat, PO, 5 mg/kg, 20% sulfobutyl-β-cyclodextrin
Experimental: The pharmacokinetic parameters of compounds of the present application were determined by using the following method.
Healthy male adult rats (7-9 weeks old) were used in this study. Each group of animals (3 male rats) was intragastrically administered once at a single dose of 5 mg/kg. The animals in the intragastric administration group were fasted overnight before this study. The fasting time period was from 10 hours before administration to 4 hours after administration.
Blood samples were taken at 0.25, 0.5, 1, 2, 4, 6, 8 and 24 h after administration. The animals were anesthetized with isoflurane using an animal anesthesia machine, and then 0.3 mL whole blood samples were taken from the fundus venous plexus. The blood samples were placed in heparin anticoagulant tubes, and centrifuged for 5 min at 4° C. and 4000 rpm. The resulting plasmas were transferred to centrifuge tubes, and stored at −80° C. until analysis.
Verified LC-MS/MS method was used to analyze the plasma samples. Plasma concentration-time data of animals were analyzed using WinNonlin (Professional Edition, version 6.3; Pharsight Company) software. The non-compartmental model was introduced for concentration analysis.

[2] = Liver microsome metabolic stability (human); type: in vitro ADME; details: human liver microsomes, read-out: Half Life t1/2, liver microsome metabolic stability (converted)
Experimental: (§8) 8 μL human liver microsomes (20 mg/mL), 20 μL NADPH and 368 μL of 0.1 M phosphate buffer were mixed, and then pre-incubated at 37° C. for 5 minutes. 4 μL working solutions (test compounds or positive control) were added, respectively. When pre-incubated at 37° C., 50 μL incubation solutions were taken out at 0, 10, 20, 30, 45 and 60 minute, and thereto was added a 150 μL solution of internal standard ([…]) in acetonitrile. 4 μL rat liver microsomes (20 mg/mL), 10 μL NADPH and 184 μL of 0.1 M phosphate buffer were mixed, and then pre-incubated at 37° C. for 5 minutes. 2 μL working solutions (test compounds or positive control) were added, respectively. When pre-incubated at 37° C., 20 μL incubation solutions were taken out at 0, 10, 20, 30, 45 and 60 minute, and thereto was added a 180 μL solution of internal standard (0.25 M warfarin) in acetonitrile. All samples were vortexed and centrifuged at 4000 rpm for 15 min, and 150 μL supernatants were added to a 96-well plate, and then 5 μL supernatants were detected in LC/MS/MS system. Chromatographic column for analysis was C18 1.7 μm 2.1×50 mm (Waters). Triple quadrupole mass spectrometry (API4000, AB Company) was used in detection. A ratio of the peak area of CT-1225 to that of the internal standard was detected in positive ion mode. […]

[3] = Liver microsome metabolic stability (rat); type: in vitro ADME; details: rat liver microsomes, read-out: Half Life t1/2, liver microsome metabolic stability (converted)
Experimental: as §8

CYP2D6 = CYP2D6 (Homo sapiens (Human), UniProt P10635); test: biochemical; type: in vitro ADME; details: human liver microsomes; read-out: IC50 in inhibiting CYP Enzyme System 2D6
Sequence of CYP2D6 (P10635 whole entry): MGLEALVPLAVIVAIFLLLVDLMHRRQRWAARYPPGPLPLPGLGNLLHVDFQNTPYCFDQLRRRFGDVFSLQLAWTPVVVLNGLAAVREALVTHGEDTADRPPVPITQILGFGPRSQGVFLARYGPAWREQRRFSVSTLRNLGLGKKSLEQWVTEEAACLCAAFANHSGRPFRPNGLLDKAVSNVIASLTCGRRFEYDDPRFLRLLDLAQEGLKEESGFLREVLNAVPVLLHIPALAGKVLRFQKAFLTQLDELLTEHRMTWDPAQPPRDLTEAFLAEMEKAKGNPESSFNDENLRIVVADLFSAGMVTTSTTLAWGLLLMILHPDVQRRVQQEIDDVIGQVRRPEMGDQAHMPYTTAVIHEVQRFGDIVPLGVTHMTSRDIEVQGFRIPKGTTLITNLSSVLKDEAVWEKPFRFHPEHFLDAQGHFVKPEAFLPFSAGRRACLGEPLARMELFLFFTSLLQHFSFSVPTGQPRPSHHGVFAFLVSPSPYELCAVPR
Experimental: as §1
as §2, with “below: […]” for “below:”
as §6, §7

serum DPP-IV = serum DPP-IV (Mus musculus (Mouse), UniProt P28843); test: in vivo; details: for response vs control in vivo at 30 mg/kg: po, read-out: Specific activity of DPP-IV
Sequence of serum DPP-IV (P28843 37-760): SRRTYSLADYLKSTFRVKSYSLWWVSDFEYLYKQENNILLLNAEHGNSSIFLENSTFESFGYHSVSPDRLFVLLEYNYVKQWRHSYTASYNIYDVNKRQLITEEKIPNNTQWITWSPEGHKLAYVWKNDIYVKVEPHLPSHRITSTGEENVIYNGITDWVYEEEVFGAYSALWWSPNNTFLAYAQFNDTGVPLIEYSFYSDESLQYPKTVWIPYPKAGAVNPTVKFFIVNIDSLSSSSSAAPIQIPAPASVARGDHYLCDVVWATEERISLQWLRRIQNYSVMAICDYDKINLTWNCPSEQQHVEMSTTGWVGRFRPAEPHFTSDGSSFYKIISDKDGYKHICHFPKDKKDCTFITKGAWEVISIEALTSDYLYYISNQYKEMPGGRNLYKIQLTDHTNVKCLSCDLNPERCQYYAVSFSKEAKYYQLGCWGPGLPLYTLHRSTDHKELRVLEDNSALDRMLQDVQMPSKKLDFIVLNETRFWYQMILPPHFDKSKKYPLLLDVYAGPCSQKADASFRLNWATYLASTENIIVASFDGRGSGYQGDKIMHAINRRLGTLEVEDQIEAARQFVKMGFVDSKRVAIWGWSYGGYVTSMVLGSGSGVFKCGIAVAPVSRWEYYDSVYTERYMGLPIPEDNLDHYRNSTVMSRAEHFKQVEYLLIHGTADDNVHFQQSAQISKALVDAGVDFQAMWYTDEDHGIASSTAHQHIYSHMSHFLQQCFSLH

CS(=O)(=O)c1ccc2c(c1)CN([C@H]1CO[C@H](c3cc(F)ccc3F)[C@@H](N)C1)C2 [Example 4, (2R,3S,5R)-5-(5-methylsulfonylisoindolin-2-yl)-2-(2,5-difluorophenyl)tetrahydro-2H-pyran-3-amine]
IC50 (CYP2B6): > 25 µM | IC50 (CYP3A4; substrate Midazolam, read-out: IC50 in inhibiting CYP Enzyme System 3A4_Mid): > 25 µM | IC50 (CYP3A4; substrate Testosterone, read-out: IC50 in inhibiting CYP Enzyme System 3A4_Tes): > 25 µM | IC50 (CYP1A2): > 25 µM | IC50 (CYP2C8): > 25 µM | IC50 (CYP2C9): > 25 µM | IC50 (CYP2C19): > 25 µM | AUC(0-inf) [1]: 45600 ng·h/mL | Cmax [1]: 4390 ng/mL | Tmax [1]: 1.67 h | half-life [1]: 17.1 h | half-life [2]: 4.52 h | half-life [3]: 8.26 h | IC50 (CYP2D6): > 25 µM

N[C@H]1C[C@@H](N2Cc3ccc(S(=O)(=O)C4CC4)cc3C2)CO[C@@H]1c1cc(F)ccc1F [Example 9, (2R,3S,5R)-5-(5-cyclopropylsulfonylisoindolin-2-yl)-2-(2,5-difluorophenyl) tetrahydro-2H-pyran-3-amine]
AUC(0-inf) [1]: 52200 ng·h/mL | Cmax [1]: 5960 ng/mL | Tmax [1]: 2 h | half-life [1]: 32.5 h

CS(=O)(=O)n1cc2c(n1)CN([C@H]1CO[C@H](c3cc(F)ccc3F)[C@@H](N)C1)C2 [Omarigliptin]
response vs control in vivo at 30 mg/kg (serum DPP-IV; 2 h): 8.4% | response vs control in vivo at 30 mg/kg (serum DPP-IV; 4 h): 7.4% | response vs control in vivo at 30 mg/kg (serum DPP-IV; 10 h): 9.1% | response vs control in vivo at 30 mg/kg (serum DPP-IV; 24 h): 15.6% | response vs control in vivo at 30 mg/kg (serum DPP-IV; 34 h): 20.2% | response vs control in vivo at 30 mg/kg (serum DPP-IV; 48 h): 45.5% | response vs control in vivo at 30 mg/kg (serum DPP-IV; 58 h): 41.2% | response vs control in vivo at 30 mg/kg (serum DPP-IV; 72 h): 58.4% | response vs control in vivo at 30 mg/kg (serum DPP-IV; 96 h): 68% | inhibition at 30 mg/kg (serum DPP-IV; read-out: inhibitory rate of serum DPP-IV activity in mice): > 70% | half-life [2]: 4.09 h | half-life [3]: 21.1 h
